Measurements taken from patent US7468375B2 (Pfizer Inc., priority 2004, dated 2008).
Where two headings read alike, the source gives them in different places.

What was measured:
[1] = system: RF strain of HIV-1 in CEM-SS cells; assay: HIV-1 cell protection assay (XTT dye reduction); assay type: cell-based; details: HIV-1 RF, CEM-SS cells, XTT dye reduction, six days, read-out: EC50
In short: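 CEM-SS cells infected with HIV-1 RF (moi 0.025–0.819) or mock-infected, 2×10^4 cells/well with half-log compound dilutions for six days. Viability by XTT/PMS reduction (4 h), absorbance 450 nm, as % of uninfected untreated cells. Therapeutic index = CC50/EC50.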

[2] = target: T1, Full-length wild type HIV-1 integrase (SF1) (Human immunodeficiency virus type 1 group M subtype B, UniProt P04585); assay: Integrase strand-transfer scintillation proximity assay; assay type: biochemical; details: strand transfer, 50 min at 37° C., 246 nM integrase, 50 nM host DNA; read-out: IC50
T1 construct: made in house; host or cells: E. coli BL21 (DE3)
In short: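 Recombinant full-length wild-type HIV-1 integrase (aa 1-288), E. coli-expressed, tested on biotinylated pre-processed U5 LTR viral ds-DNA with CA overhang bound to streptavidin SPA beads. [3H]-thymidine-labelled host ds-DNA serves as target; strand transfer read by scintillation proximity. A 3′ di-deoxy viral DNA control checks non-specific binding.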

[3] = Human immunodeficiency virus 1, CEM-SS, 144 h

Compound | EC50 [1] | IC50 [2] | EC50 [1, 3]
CCN1CCCC1CNCc1cn(Cc2ccc(F)cc2F)c2cnc(C(=O)NO)cc12 (stereo not shown) [Example 62, 1-(2,4-Difluorobenzyl)-3-({[(1-ethylpyrrolidin-2-yl)methyl]amino}methyl)-N-hydroxy-1H-pyrrolo[2,3-c]pyridine-5-carboxamide] | 17 nM | 671 nM | –
CN(CCc1ccccn1)Cc1cn(Cc2ccc(F)cc2F)c2cnc(C(=O)NO)cc12 [Example 63, 1-(2,4-Difluorobenzyl)-N-hydroxy-3-{[methyl(2-pyridin-2-ylethyl)amino]methyl}-1H-pyrrolo[2,3-c]pyridine-5-carboxamide] | – | 424 nM | 16 nM
O=C(NO)c1cc2c(CN[C@H](CO)Cc3ccccc3)cn(Cc3ccc(F)cc3F)c2cn1 [Example 64, 3-({[(1S)-1-Benzyl-2-hydroxyethyl]amino}methyl)-1-(2,4-difluorobenzyl)-N-hydroxy-1H-pyrrolo[2,3-c]pyridine-5-carboxamide] | – | 328 nM | 17 nM
CC(O)CNCc1cn(Cc2ccc(F)cc2F)c2cnc(C(=O)NO)cc12 (stereo not shown) [Example 65, 1-(2,4-Difluorobenzyl)-N-hydroxy-3-{[(2-hydroxypropyl)amino]methyl}-1H-pyrrolo[2,3-c]pyridine-5-carboxamide] | – | 625 nM | 14 nM
Cc1cnc(CNCc2cn(Cc3ccc(F)cc3F)c3cnc(C(=O)NO)cc23)cn1 [Example 66, 1-(2,4-Difluorobenzyl)-N-hydroxy-3-({[(5-methylpyrazin-2-yl)methyl]amino}methyl)-1H-pyrrolo[2,3-c]pyridine-5-carboxamide] | – | 357 nM | 11 nM
O=C(NO)c1cc2c(CNCCc3c[nH]c4ccccc34)cn(Cc3ccc(F)cc3F)c2cn1 [Example 67, 1-(2,4-Difluorobenzyl)-N-hydroxy-3-({[2-(1H-indol-3-yl)ethyl]amino}methyl)-1H-pyrrolo[2,3-c]pyridine-5-carboxamide] | – | 283 nM | 15 nM
O=C(NO)c1cc2c(CNCCCN3CCCC3=O)cn(Cc3ccc(F)cc3F)c2cn1 [Example 68, 1-(2,4-Difluorobenzyl)-N-hydroxy-3-({[3-(2-oxopyrrolidin-1-yl)propyl]amino}methyl)-1H-pyrrolo[2,3-c]pyridine-5-carboxamide] | – | 549 nM | 100 nM
CCN(CCO)Cc1cn(Cc2ccc(F)cc2F)c2cnc(C(=O)NO)cc12 [Example 69, 1-(2,4-Difluorobenzyl)-3-{[ethyl(2-hydroxyethyl)amino]methyl}-N-hydroxy-1H-pyrrolo[2,3-c]pyridine-5-carboxamide] | – | 755 nM | 28 nM
O=C(NO)c1cc2c(CNCc3ccc(F)cc3)cn(Cc3ccc(F)cc3F)c2cn1 [Example 70, 1-(2,4-Difluorobenzyl)-3-{[(4-fluorobenzyl)amino]methyl}-N-hydroxy-1H-pyrrolo[2,3-c]pyridine-5-carboxamide] | – | 332 nM | 22 nM
CC(NCc1cn(Cc2ccc(F)cc2F)c2cnc(C(=O)NO)cc12)c1ccccc1 (stereo not shown) [Example 71, 1-(2,4-Difluorobenzyl)-N-hydroxy-3-{[(1-phenylethyl)amino]methyl}-1H-pyrrolo[2,3-c]pyridine-5-carboxamide] | – | 409 nM | 44 nM
CN(C)CCNCc1cn(Cc2ccc(F)cc2F)c2cnc(C(=O)NO)cc12 [Example 72, 1-(2,4-Difluorobenzyl)-3-({[2-(dimethylamino)ethyl]amino}methyl)-N-hydroxy-1H-pyrrolo[2,3-c]pyridine-5-carboxamide] | – | 658 nM | 29 nM
CCCN(Cc1cn(Cc2ccc(F)cc2F)c2cnc(C(=O)NO)cc12)CC1CC1 [Example 73, 3-{[(Cyclopropylmethyl)(propyl)amino]methyl}-1-(2,4-difluorobenzyl)-N-hydroxy-1H-pyrrolo[2,3-c]pyridine-5-carboxamide] | – | 658 nM | 35 nM
O=C(NO)c1cc2c(CN[C@@H]3C[C@H]4CC[C@@H]3C4)cn(Cc3ccc(F)cc3F)c2cn1 [Example 74, 3-{[(1R,2R,4S)-Bicyclo[2.2.1]hept-2-ylamino]methyl}-1-(2,4-difluorobenzyl)-N-hydroxy-1H-pyrrolo[2,3-c]pyridine-5-carboxamide] | – | 357 nM | 32 nM
C[C@@H](NCc1cn(Cc2ccc(F)cc2F)c2cnc(C(=O)NO)cc12)C1CCCCC1 [Example 76, 3-({[(1R)-1-Cyclohexylethyl]amino}methyl)-1-(2,4-difluorobenzyl)-N-hydroxy-1H-pyrrolo[2,3-c]pyridine-5-carboxamide] | – | 402 nM | 91 nM
O=C(NO)c1cc2c(CN[C@H](CO)Cc3c[nH]c4ccccc34)cn(Cc3ccc(F)cc3F)c2cn1 [Example 77, 1-(2,4-Difluorobenzyl)-N-hydroxy-3-({[(1S)-2-hydroxy-1-(1H-indol-3-ylmethyl)ethyl]amino}methyl)-1H-pyrrolo[2,3-c]pyridine-5-carboxamide] | – | 483 nM | 360 nM
CC(C)C(CO)NCc1cn(Cc2ccc(F)cc2F)c2cnc(C(=O)NO)cc12 (stereo not shown) [Example 78, 1-(2,4-Difluorobenzyl)-N-hydroxy-3-({[1-(hydroxymethyl)-2-methylpropyl]amino}methyl)-1H-pyrrolo[2,3-c]pyridine-5-carboxamide] | – | 571 nM | 83 nM
Cc1cccc(CNCc2cn(Cc3ccc(F)cc3F)c3cnc(C(=O)NO)cc23)c1 [Example 79, 1-(2,4-Difluorobenzyl)-N-hydroxy-3-{[(3-methylbenzyl)amino]methyl}-1H-pyrrolo[2,3-c]pyridine-5-carboxamide] | – | 243 nM | 20 nM
O=C(NO)c1cc2c(CNCCO)cn(Cc3ccc(F)cc3F)c2cn1 [Example 80, 1-(2,4-Difluorobenzyl)-N-hydroxy-3-{[(2-hydroxyethyl)amino]methyl}-1H-pyrrolo[2,3-c]pyridine-5-carboxamide] | 10 nM | 530 nM | –
CC1CCCN1Cc1cn(Cc2ccc(F)cc2F)c2cnc(C(=O)NO)cc12 (stereo not shown) [Example 81, 1-(2,4-Difluorobenzyl)-N-hydroxy-3-[(2-methylpyrrolidin-1-yl)methyl]-1H-pyrrolo[2,3-c]pyridine-5-carboxamide] | – | 499 nM | 40 nM
CCC(CC)NCc1cn(Cc2ccc(F)cc2F)c2cnc(C(=O)NO)cc12 [Example 82, 1-(2,4-Difluorobenzyl)-3-{[(1-ethylpropyl)amino]methyl}-N-hydroxy-1H-pyrrolo[2,3-c]pyridine-5-carboxamide] | – | 634 nM | 23 nM
CC(C)OCCCNCc1cn(Cc2ccc(F)cc2F)c2cnc(C(=O)NO)cc12 [Example 83, 1-(2,4-Difluorobenzyl)-N-hydroxy-3-H{[(3-isopropoxypropyl)amino]methyl}-1H-pyrrolo[2,3-c]pyridine-5-carboxamide] | – | 952 nM | 60 nM
O=C(NO)c1cc2c(CNCC(O)c3ccccc3)cn(Cc3ccc(F)cc3F)c2cn1 (stereo not shown) [Example 84, 1-(2,4-Difluorobenzyl)-N-hydroxy-3-{[(2-hydroxy-2-phenylethyl)amino]methyl}-1H-pyrrolo[2,3-c]pyridine-5-carboxamide] | – | 316 nM | 51 nM
O=C(NO)c1cc2c(CNCCc3ccc(F)cc3)cn(Cc3ccc(F)cc3F)c2cn1 [Example 85, 1-(2,4-Difluorobenzyl)-3-(J[2-(4-fluorophenyl)ethyl]aminomethyl)-N-hydroxy-1H-pyrrolo[2,3-c]pyridine-5-carboxamide] | – | 224 nM | 33 nM
CC(C)(C)[C@@H](CO)NCc1cn(Cc2ccc(F)cc2F)c2cnc(C(=O)NO)cc12 [Example 87, 1-(2,4-Difluorobenzyl)-N-hydroxy-3-({[(1S)-1-(hydroxymethyl)-2,2-dimethylpropyl]amino}methyl)-1H-pyrrolo[2,3-c]pyridine-5-carboxamide] | – | 814 nM | 67 nM
O=C(NO)c1cc2c(CNCc3ccc(C(F)(F)F)nc3)cn(Cc3ccc(F)cc3F)c2cn1 [Example 88, 1-(2,4-Difluorobenzyl)-N-hydroxy-3-[({[6-(trifluoromethyl)pyridin-3-yl]methyl}amino)methyl]-1H-pyrrolo[2,3-c]pyridine-5-carboxamide] | – | 238 nM | 16 nM
CN1CCC(NCc2cn(Cc3ccc(F)cc3F)c3cnc(C(=O)NO)cc23)CC1 [Example 89, 1-(2,4-Difluorobenzyl)-N-hydroxy-3-{[(1-methylpiperidin-4-yl)amino]methyl}-1H-pyrrolo[2,3-c]pyridine-5-carboxamide] | – | 708 nM | 52 nM
COc1ncccc1NCc1cn(Cc2ccc(F)cc2F)c2cnc(C(=O)NO)cc12 [Example 90, 1-(2,4-Difluorobenzyl)-N-hydroxy-3—[(2-methoxypyridin-3-yl)amino-methyl]-1H-pyrrolo[2,3-c]pyridine-5-carboxamide] | – | 212 nM | 18 nM
O=C(NO)c1cc2c(CNC3CCOCC3)cn(Cc3ccc(F)cc3F)c2cn1 [Example 91, 1-(2,4-Difluorobenzyl)-N-hydroxy-3-[(tetrahydro-2H-pyran-4-ylamino)methyl]-1H-pyrrolo[2,3-c]pyridine-5-carboxamide] | – | 519 nM | 28 nM
O=C(NO)c1cc2c(CNCC34CCCN3CCC4)cn(Cc3ccc(F)cc3F)c2cn1 [Example 92, 1-(2,4-Difluorobenzyl)-N-hydroxy-3-{[(tetrahydro-1H-pyrrolizin-7a(5H)-ylmethyl)amino]methyl}-1H-pyrrolo[2,3-c]pyridine-5-carboxamide] | – | 425 nM | 70 nM
